Data on 1 compound can be found in publication PMC6014988, “Precision therapeutic targeting of human cancer cell motility” (Nature Communications, 2018).

“Also recorded” adds a separate entry of the source.

One experiment concerns estrogen receptor (ER). Briefly: Induction of estrogen-responsive genes in MCF-7 cells. The format is cell-based, human. The procedure: RNA was isolated and qRT-PCR was performed as described by us[43], analyzed by the 2^−ΔΔCt method, using primer/probes sets (ABI), HSP90α (Hs00743767_sH), HSP90β (Hs00427665_g1), trefoil factor 1 (TFF1; Hs00907239_m1), cathepsin D (CTSD; Hs00157205_m1), progesterone receptor (PGR; Hs01556702_m1), and GAPDH (Hs99999905_m1). Assays were repeated, each in replicates of N = 2. […]
panel. KBU2046 was submitted to the Developmental Therapeutics Program (DTP) of the US National Cancer Institute (NCI), underwent initial screening across the NCI 60 cell line panel per DTP protocol 1, and the resultant COMPARE diagram is depicted above. Based upon its lack of […]
Supplementary Figure 3. […] Estrogen […]
receptor positive MCF-7 cells were cultured under hormone free conditions transfected pERE-Luc or empty control vector, along with constitutive active β-gal, grown under estrogen-free conditions, and pre-treated for 24 hours with nanomolar concentrations of estradiol, or with micromolar concentrations of genistein or KBU2046, as indicated. Luciferase activity was measured, normalized to that of β-gal, and values expressed as the percent of untreated vector control cells. Values are the mean±SD of a single experiment, with similar results seen in a separate repeat experiment, both in replicates of N=2.
(also on this page, place not known: luciferase/B-gal activity, % untreated vector control) […]

The target in a further experiment is T1, CDC37 (Homo sapiens, UniProt Q16543).
T1 construct: made in house; host or cells: BL-21 DE-3 E. coli
Briefly: Biophysical binding assays and DARTS, isolated CDC37. The conditions noted are these: ITC, thermal shift, biolayer interferometry, dynamic light scattering, DARTS. The procedure:
(§1) Fluorescent thermal shift, isothermal titration calorimetry, and biolayer interferometry assays[46] were all performed as described by us using MEK4EE (37-399, S257E, T261E) cloned into pMCSG7 and KRX Competent E. coli cells (Promega Inc.) and above denoted full-length HSP90B and CDC37 vectors and Rosetta BL-21 and BL-21 DE-3 competent E. coli cells, respectively. DARTS assays were conducted as described, using equimolar amounts of CDC37 and HSP90β, thermolysin digestion, and silver stain visualization (ProteoSilver Silver Stain Kit, Sigma-Aldrich).
Supplementary Figure 14. […] Studies used purified […]
recombinant HSP90β or CDC37. Fluorescent thermal shift 5, isothermal titration calorimetry 6, […]
evidence of KBU2046 binding to either HSP90β or CDC37 (data not shown). For DARTS assay, HSP90β or CDC37 were individually pre-incubated with KBU2046, thermolysin added, and reaction products were separated by SDS PAGE and visualized by silver stain (depicted above).
NTco – no thermolysin control. However, when the DARTS assay was conducted with both HSP90β and CDC37 present, KBU2046 protected both proteins from degradation in a concentration-dependent manner (see manuscript Fig 5A).
(also on this page, place not known: HSP90 Ntco 0 0.001 0.01 0.1 1.0 10 µM KBU2046, thermolysin NTco thermolysin CDC37)
(1 picture or pasted object on this page, not shown here)

The next experiment has as its target T2, MKK4 (Homo sapiens, UniProt P45985, S257E/T261E).
T2 construct: made in house; host or cells: KRX E. coli
As to the kind of experiment: Fluorescence-based thermal shift assay, MKK4. The format is binding. The procedure:
as §1
Supplementary Figure 9. […] (a) Depiction of […]
established MKK4 pathway regulating human PCa cell metastasis. […]
to MKK4, as measured by fluorescence-based thermal shift assay. Values are the mean±SD (of N=2 replicates) increase in melting temperature (ΔTm) of purified recombinant MKK4 induced by the indicated concentrations of KBU2046 or genistein. […]
in an in vitro kinase assay. The indicated concentrations of KBU2046 were added to recombinant activated MKK4, and its ability to phosphorylate kinase dead p38α MAPK (K53A) was measured by Western blot for total (p38 MAPK) and phosphorylated (pp38 MAPK) forms of […]
HSP27 in cells. PC3-M cells were pre-treated for 24 hours with 50 µM KBU2046 or genistein, as indicated, then with TGFβ, and Western blot performed. […]

The test system of experiment [1] is RAF1. Briefly: RAF1 protein expression, western blot. The format is cell-based, human. The settings on record: in cells. The procedure:
Fig. 6 KBU2046-mediated changes in the signature of client proteins bound to the HSP90β/CDC37 heterocomplex mediate effects upon cell motility. a LUMIER assay. HEK293T cells were transfected with 1 of 420 different protein kinases, treated with 10 µM KBU2046 (N = 5 replicates) or vehicle control (N = 5) for 3 days, and LUMIER assays performed. The N = 17 kinases that gave significant findings (Student’s t-test <0.05) in the same direction in each of two separate experiments are depicted. […] All experiments were repeated at separate times at least once, with similar results
Western blots were performed as described by us[32]. All western blots were repeated at least once. Uncropped scans of the most important blots are depicted in Supplementary Fig. 19.

Experiment [2] concerns RAF1. Briefly: In vitro kinase assay of RAF1, HSP90β and CDC37. The experiment is classed as biochemical. The conditions noted are these: purified recombinant RAF1, HSP90β, CDC37. The procedure:
MEK4/MKK4/MAP2K4 in vitro kinase assay was performed as described by us[45].

T2 sequence (P45985 37-399 S257E/T261E): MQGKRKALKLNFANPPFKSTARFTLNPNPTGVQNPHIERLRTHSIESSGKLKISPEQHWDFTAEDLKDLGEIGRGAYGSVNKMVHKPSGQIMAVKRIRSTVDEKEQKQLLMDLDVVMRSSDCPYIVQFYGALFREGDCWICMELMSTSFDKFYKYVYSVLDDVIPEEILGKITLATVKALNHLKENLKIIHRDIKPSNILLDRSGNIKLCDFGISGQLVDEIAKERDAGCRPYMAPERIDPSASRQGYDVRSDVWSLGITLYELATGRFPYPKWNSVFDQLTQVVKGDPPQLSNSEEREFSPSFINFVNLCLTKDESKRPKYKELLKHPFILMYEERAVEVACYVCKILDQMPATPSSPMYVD
T1 sequence (Q16543 whole entry): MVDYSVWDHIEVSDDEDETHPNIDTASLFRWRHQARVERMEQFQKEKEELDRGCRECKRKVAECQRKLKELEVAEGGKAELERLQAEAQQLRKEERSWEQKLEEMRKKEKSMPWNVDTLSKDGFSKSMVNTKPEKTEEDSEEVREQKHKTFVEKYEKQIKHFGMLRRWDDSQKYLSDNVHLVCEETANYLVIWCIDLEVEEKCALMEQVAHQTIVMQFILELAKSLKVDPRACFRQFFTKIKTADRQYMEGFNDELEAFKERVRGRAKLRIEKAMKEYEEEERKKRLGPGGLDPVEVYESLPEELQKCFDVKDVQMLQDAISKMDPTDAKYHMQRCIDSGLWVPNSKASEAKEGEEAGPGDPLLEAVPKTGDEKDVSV

Consider `O=C1c2ccccc2OCC1c1ccc(F)cc1` (racemic) [KBU2046, (±)-3(4-fluorophenyl)chroman-4-one], for which, in the experiment on estrogen receptor (ER), the “activation of estrogen-responsive genes” value is on record as “did not activate estrogen-responsive genes; also recorded: does not activate the estrogen receptor”. At CDC37, the “binding to CDC37” value was “no evidence of KBU2046 binding”. Besides, the “binding to MKK4” value on MKK4 is “did not bind to MKK4”. Besides, the “RAF1 protein expression levels” value in the experiment with RAF1 [1] is reported as “did not alter RAF1 protein expression levels”. Also, in the experiment with RAF1 [2], the “phosphorylation of RAF1 Ser338” value is on record as “decreased phosphorylation of RAF1’s Ser338 activation motif”.
